One series concerns male dd-mice. Description: Acute toxicity. The format is in vivo. The note with it: Minimum lethal dose, oral, mortality observed for seven days. The protocol:
The compounds were orally administrated to male dd-mice weighing 20 ± 1 g. Minimum lethal dose (MLD) was determined by observing the mortality for seven days after the administration.

The subject of the next series is Wistar male rats. The series is described as follows: Diuretic activity. It is filed as in vivo. Conditions: Rattus norvegicus, po, 25 mg/kg orally, urine taken for 6 hours. The protocol: Wistar male rats weighing 150 to 300 g were used after fasting for 18 hours. […] The test was performed using 3 groups per test compound, and each group consists of 3 animals. The urine was metered by a measuring cylinder and electrolytes (Na^+ and K^+) in the urine were analyzed by flame photometer (model […]: Hitachi Ltd.). Parameters in Table 3 are represented by relative value for control.

The next series concerns Hartley male guinea pigs. The series is described as follows: Experimental asthma (collapse time after antigen aerosol). Conditions: 1 hour before 1.5% EWA aerosol, n=3-10 mean±S.E.M., control 254 ± 18. It is filed as in vivo. The protocol:
Guinea pigs were passively sensitized as follows. Hartley male guinea pigs weighing 350 to 500 g were intraperitoneally injected with 1 ml of rabbit anti-egg alubmin (EWA) serum prepared by the method of Koda et al. [Folia pharmacol., Japon, 66, 237 (1970)]. The animals were treated with intraperitoneal injection of diphenhydramine (20 mg/kg) and propranolol (5 mg/kg), 30 minutes before administration of test compounds. 17 hours after the sensitization, the test compounds (50 mg/kg or 5 mg/kg) or saline (control) were orally administrated to sensitized animals. After one hour from the administration of the test compounds, the guinea pigs were placed in plastic observation box and were exposed to an aerosal antigen of 1.5% EWA.
The time until the onset of respiratory distress-like symptom [collapse time (second)] was measured as a result of experimental asthma.

Another series relates to trachea. Description: Passive Schultz-Dale reaction (broncho-dilatory effect) on isolated tracheal strips. The note with it: Cavia porcellus; 50% relaxation of antigen (EWA, 1 µg/ml)-contracted tracheal strips of passively sensitized guinea pigs. The protocol: Guinea pigs were passively sensitized as follows. Hartley male guinea pigs weighing 350 to 500 g were injected intraperitoneally with rabbit anti-egg albumin (EWA) serum prepared by the method of Koda et al. [Folia pharmacol., Japon 66, 237, (1970)]. After 24 hours, the guinea pigs were stunned and exsanguinated, and then trachea was excised. The zig-zag strips of the trachea were prepared by the method of Emmerson and Mackay [J. Pharm. Pharmacol., 31, 798, (1979)]. The strips were suspended in Krebs-Henseleit solution at 37°C under aeration of a mixed gas of 95% oxygen and 5% carbon dioxide, and incubated for one hour. Antigen (EWA) was then introduced in the solution (final concentration; 1 µg/ml), and the contraction was measured by isotonictransducer (TD-112s, made by Nihon Kohden K.K., Japan) and recorded on a recorder (Type 3066, made by Yokogawa-Hokushin Denki, K.K. Japan). After the contraction curves reached plateau the compounds were successively added in order to get cumulative concentration-relaxation curves. Concentration of 50% relaxation rate (IC50) was calculated from the regression line, which was obtained from cumulative concentration-relaxation curves.

For another series, the system named is male dd mice. The series is described as follows: Inhibition of platelet activating factor (PAF)-induced mortality. It is filed as in vivo. Conditions: Mus musculus, minimum effective dose, oral, 1 hour before 40 µg/kg PAF i.v., mortality 2 hours after PAF, read-out: PAF-induced mortality MED. The protocol:
The experiment was performed by a minor modification of method of Carlson et al. [Agents and Actions, 21, 379 (1987)]. Groups each consisting of 10 male dd mice (weighing 28 to 32 g) were used, and 100 mg/kg of test compound or a saline (control) was orally administrated. One hour after the administration of test compound, 40 µg/kg of PAF (manufactured by Avanti Polar Lipids Co., Ltd.) was intravenously administered. Two hours after PAF injection, the mortality rate of the animals was observed. […]

For another series, the system named is mice. Description: Scopolamine-induced amnesia, step through passive avoidance. It is filed as in vivo. The note with it: scopolamine 0.5 mg/kg i.p., mean ± S.E.M., controls 40.9±8.1 (Compound 41), 37.0±6.2 (Compound 51). The protocol: Acquisition trial was performed in a manner similar to Experiment (f). Amnestic treatment was performed by intraperitoneal administration of scopolamine (0.5 mg/kg), 30 minutes prior to the acquisition trial. The test trial was performed 24 hours after the acquisition trial and its latency was determined as in Experiment (f).
Preparation of administrated test compound was performed in a manner similar to Experiment (f). Test compound and the saline were orally administered 60 minutes before the acquisition trial, respectively.

Setting [1] is: relative value for control (1.00), read-out: Na^+/K^+.
Setting [2] is: relative value for control (100), read-out: Excretion of K^+.
The mark [3] stands for this setting: relative value for control (100), read-out: Excretion of Na^+.
The mark [4] stands for this setting: relative value for control (100), read-out: Urine volume.

The values below come from patent EP0417790B1, “S-triazolo[3,4-i]purine derivatives” (Kyowa Hakko Kogyo Co., Ltd., priority 1989, dated 1991).

pIC50: −log10 of the molar value. Where two headings read alike, the source gives them in different places.

As for `CCCn1c(=O)n2c(-c3ccncc3)nnc2c2c1ncn2C` [Compound 3, 6,9-Dihydro-9-methyl-6-n-propyl-3-(4-pyridyl)-5H-1,2,4-triazolo[3,4-i]purin-5-one], the MLD in the series with male dd-mice is recorded as 100 mg/kg. For the same compound, the response vs control in vivo at 25 mg/kg with Wistar male rats (setting [1]) worked out at 109%; with Wistar male rats (setting [2]), 196%; in the series with Wistar male rats (setting [3]) it was 224%; with Wistar male rats (setting [4]), 274%. The “Experimental asthma Collapse time” value with Hartley male guinea pigs (50 mg/kg orally) amounted to 422 ± 130 s. Besides, the negative logarithm of the IC50 (pIC50) with trachea was 7.49.

In turn, `CCCn1c(=O)n2c(-c3cccnc3)nnc2c2c1ncn2C` [Compound 4, 6,9-Dihydro-9-methyl-6-n-propyl-3-(3-pyridyl)-5H-1,2,4-triazolo[3,4-i]purin-5-one] yielded an MLD in the series with male dd-mice of 200 mg/kg. Moreover, the response vs control in vivo at 25 mg/kg with Wistar male rats (setting [1]) is 125%; in the series with Wistar male rats (setting [2]), 134%; in the series with Wistar male rats (setting [3]), 167%; in the series with Wistar male rats (setting [4]), 177%. Moreover, the “Experimental asthma Collapse time” value in the series on Hartley male guinea pigs (50 mg/kg orally) was determined as 358 ± 65 s. Besides, the negative logarithm of the IC50 (pIC50) in the series on trachea was 5.11.

Compound `CCCn1c(=O)n2c(-c3ccco3)nnc2c2c1ncn2C` [Compound 5, 6,9-Dihydro-3-(2-furyl)-9-methyl-6-n-propyl-5H-1,2,4-triazolo[3,4-i]purin-5-one] registered an MLD with male dd-mice above 300 mg/kg. The minimal effective dose in the series with male dd mice was 100 mg/kg. For the same compound, the negative logarithm of the IC50 (pIC50) in the series with trachea was 6.15.

As for `CCCn1c(=O)n2c(-c3ccoc3C)nnc2c2c1ncn2C` [Compound 6, 6,9-Dihydro-9-methyl-3-(2-methyl-3-furyl)-6-n-propyl-5H-1,2,4-triazolo[3,4-i]purin-5-one], in the series with male dd-mice, the MLD amounted to 200 mg/kg. Besides, the response vs control in vivo at 25 mg/kg with Wistar male rats (setting [1]) was 164%; in the series on Wistar male rats (setting [2]), 146%; in the series with Wistar male rats (setting [3]), 240%; in the series with Wistar male rats (setting [4]), 223%. The minimal effective dose in the series with male dd mice stood at 100 mg/kg.

`CCCn1c(=O)n2c(-c3cccc(Cl)c3)nnc2c2c1ncn2C` [Compound 11, 3-(3-Chlorophenyl)-6,9-dihydro-9-methyl-6-n-propyl-5H-1,2,4-triazolo[3,4-i]purin-5-one]: in the series on male dd-mice, the MLD is listed as above 300 mg/kg. Moreover, the response vs control in vivo at 25 mg/kg was 226% in the series with Wistar male rats (setting [1]), 134% in the series on Wistar male rats (setting [2]), 302% with Wistar male rats (setting [3]) and 255% with Wistar male rats (setting [4]). The minimal effective dose in the series on male dd mice was 100 mg/kg. The pIC50 with trachea was below 4.40.

`CCCn1c(=O)n2c(-c3ccc(Cl)cc3)nnc2c2c1ncn2C` [Compound 12, 3-(4-Chlorophenyl)-6,9-dihydro-9-methyl-6-n-propyl-5H-1,2,4-triazolo[3,4-i]purin-5-one] registered an MLD with male dd-mice above 300 mg/kg. The response vs control in vivo at 25 mg/kg was found to be 142% in the series with Wistar male rats (setting [1]), 129% in the series on Wistar male rats (setting [2]), 183% with Wistar male rats (setting [3]) and 198% in the series on Wistar male rats (setting [4]). Further, in the series with male dd mice, the minimal effective dose was determined as 100 mg/kg. In addition, the “Experimental asthma Collapse time” value in the series with Hartley male guinea pigs (5 mg/kg orally) was found to be 399 ± 55 s. In the series with trachea, the negative logarithm of the IC50 (pIC50) was 4.59.

`CCCn1c(=O)n2c(C)nnc2c2c1ncn2C` [Compound 24, 6,9-Dihydro-3,9-dimethyl-6-n-propyl-5H-1,2,4-triazolo-[3,4-i]purin-5-one]: in the series with male dd-mice, the MLD is given as 300 mg/kg. In addition, the response vs control in vivo at 25 mg/kg in the series on Wistar male rats (setting [1]) came to 123%; in the series with Wistar male rats (setting [2]), 168%; with Wistar male rats (setting [3]) it was 148%; in the series with Wistar male rats (setting [4]), 160%. For the same compound, in the series on male dd mice, the minimal effective dose was 100 mg/kg.

Take `CCCn1c(=O)n2c(C)nnc2c2[nH]cnc21` [Compound 25, 6,9-Dihydro-3-methyl-6-n-propyl-5H-1,2,4-triazolo[3,4-i]-purin-5-one]: the MLD in the series on male dd-mice turned out to be 100 mg/kg. Moreover, the response vs control in vivo at 25 mg/kg with Wistar male rats (setting [1]) came to 163%; with Wistar male rats (setting [2]), 119%; with Wistar male rats (setting [3]), 193%; in the series with Wistar male rats (setting [4]) it was 161%. Besides, the minimal effective dose with male dd mice turned out to be 100 mg/kg. Further, in the series on Hartley male guinea pigs (50 mg/kg orally), the “Experimental asthma Collapse time” value turned out to be 590 ± 9.8 s. Besides, the negative logarithm of the IC50 (pIC50) with trachea is 6.38.

In the series with male dd-mice, `CCCn1c(=O)n2c(-c3ccccc3)nnc2c2[nH]cnc21` [Compound 30, 6,9-Dihydro-3-phenyl-6-n-propyl-5H-1,2,4-triazolo[3,4-i]purin-5-one] yielded an MLD of 300 mg/kg. In addition, the response vs control in vivo at 25 mg/kg in the series on Wistar male rats (setting [1]) turned out to be 177%; in the series on Wistar male rats (setting [2]), 124%; in the series on Wistar male rats (setting [3]) it was 220%; in the series with Wistar male rats (setting [4]) it was 204%. Besides, the minimal effective dose with male dd mice is 10 mg/kg. For the same compound, the pIC50 with trachea was 6.12.

Regarding `CCCn1cnc2c1c1n[nH]c(=O)n1c(=O)n2CCC` [Compound 44, 6,9-Di-n-propyl-2,5,6,9-tetrahydro-3H-1,2,4-triazolo[3,4-i]purin-3,5-dione], in the series with male dd-mice, the MLD is given as above 300 mg/kg. Moreover, the response vs control in vivo at 25 mg/kg in the series with Wistar male rats (setting [1]) amounted to 111%; in the series with Wistar male rats (setting [2]), 128%; in the series on Wistar male rats (setting [3]) it was 142%; in the series with Wistar male rats (setting [4]), 191%. Also, the negative-log IC50 (pIC50) in the series on trachea was 4.40.

Consider `CCCCn1c(=O)n2c(=O)[nH]nc2c2c1ncn2C` [Compound 51, 6-n-Butyl-9-methyl-2,5,6,9-tetrahydro-3H-1,2,4-triazolo[3,4-i]purin-3,5-dione], for which, in the series with male dd-mice, the MLD is above 300 mg/kg. The response vs control in vivo at 25 mg/kg was found to be 100% in the series with Wistar male rats (setting [1]), 152% in the series on Wistar male rats (setting [2]), 152% with Wistar male rats (setting [3]) and 200% in the series with Wistar male rats (setting [4]). Moreover, the “Latency of test trial” value with mice (0.625 mg/kg orally 60 minutes before acquisition trial) worked out at 37.0 ± 11.2 s; in the series with mice (2.5 mg/kg orally 60 minutes before acquisition trial), 69.5 ± 16.6 s; in the series with mice (10 mg/kg orally 60 minutes before acquisition trial), 139.9 ± 45.1 s; with mice (40 mg/kg orally 60 minutes before acquisition trial) it was 166.3 ± 49.9 s.

Turning to `Cn1c(=O)c2[nH]cnc2n(C)c1=O` [Theophylline, reference compound], the minimal effective dose in the series on male dd mice came to 100 mg/kg. The “Experimental asthma Collapse time” value in the series on Hartley male guinea pigs (50 mg/kg orally) came out at 414 ± 47 s. In addition, in the series on trachea, the pIC50 is 4.64.
